“Also recorded” adds a separate entry of the source. Structures can show the parent of a compound that is named as a salt. Where two headings read alike, the source gives them in different places.
What was measured:
[1] = tested on: arterial ring previously contracted with 1 μM of Norepinephrine; experiment: Test of vasodilatation (arterial rings pre-contracted with norepinephrine); conditions: for EC50: read-out: CE50 (concentration effective 50), vasodilatation of 50% of the arterial ring (average ± SD)
Procedure: The method used in the assays is substantially the same as described in following references: • Furchgot, R. F. “Methods in nitric oxide research”. Feelisch & Stamler eds. John Wiley & Sons, Chichester, England, pp 567-581. • Trongvanichnam, K, et al. Jpn J. Pharmacol. 1996; 71:167-173. • Salas, E., et al. Eur. J. Pharmacol. 1994; 258:47-55.
(§1) The different compounds are tested at 5 different concentrations, at a concentration range from 0.001 to 10 mM, using from 6 to 9 arterial rings for each compound. The obtained results are compared to those from the isosorbide 5-mononitrate, which is used as reference product.
The results are shown in table 1 below and are provided as CE50 (concentration effective 50), which is the concentration of each of the tested compounds wherein there is produced a vasodilatation of 50% of the arterial ring previously contracted with 1 μM of Norepinephrine.

[2] = tested on: arterial segments of the rats; experiment: Assay of tolerance (ex vivo vasodilatation of arterial segments after subcutaneous administration for three days); assay type: in vivo; conditions: for development of tolerance (in words): rats, 10 mg/Kg s.c. each eight hours for three days
Procedure: The different compounds tested are subcutaneously administered to rats at a dose of 10 mg/Kg for three days, each eight hours, and the assay is then done ex vivo to test the capacity to vasodilate the arterial segments of the rats after the subcutaneous administration of the compound.
The method followed is substantially the same as described in following references: • De Garavilla, L., et al. Eur. J. Pharmacol. 1996; 313:89-96. • Keith, R. A., et al. J. Pharmacol. Exp. Ther. 1982; 221:525-531.
as §1, with “product, and with those obtained from the animals wherein there have not been administered any compound.” for “product.”

[3] = arterial ring previously contracted with 1 μM Norepinephrine, 6 to 9 rings, 0.001 to 10 mM

O=[N+]([O-])O[C@@H]1CO[C@H]2[C@@H]1OC[C@@H]2O [isosorbide 5-mononitrate, reference compound]
EC50 [1, 3]: 920 ± 200 µM
EC50 ([2]; Group A: rats not given any compound, ex vivo arterial rings, read-out: CE50, animals without any compound administrated during three days (Group A) (average ± SD)): 920 ± 200 µM
CE50 in treated animals relative to CE50 in not treated animals (times) ([2]; Group B versus Group A): seven
EC50 ([2]; Group B: rats given compound subcutaneously, 10 mg/Kg each eight hours for three days, ex vivo arterial rings, read-out: CE50, animals with compound administrated during three days (Group B) (average ± SD)): 6500 ± 1500 µM
development of tolerance (in words) [2]: strong developments of tolerance

CC(=O)S[C@H]1CO[C@H]2[C@@H]1OC[C@H]2O[N+](=O)[O-] [Compound 5, 2-acetylmercaptoisosorbide 5-mononitrate]
EC50 [1, 3]: 950 ± 100 µM
EC50 ([2]; Rattus norvegicus, sc, 72 h, Group A: rats not given any compound, ex vivo arterial rings, read-out: CE50, animals without any compound administrated during three days (Group A) (average ± SD)): 950 ± 100 µM
EC50 at 10 mg/kg ([2]; Rattus norvegicus, sc, Group B: rats given compound subcutaneously, 10 mg/Kg each eight hours for three days, ex vivo arterial rings, read-out: CE50, animals with compound administrated during three days (Group B) (average ± SD)): 990 ± 100 µM
development of tolerance (in words) ([2]; 10 mg/kg): development of less tolerance as compared to the reference product; also recorded: practically null

CCSc1ncccc1C(=O)O[C@H]1CO[C@H]2[C@@H]1OC[C@H]2O[N+](=O)[O-] [Compound 1, isosorbide 2-(2′-ethylthio)nicotinate 5-mononitrate hydrochloride]
EC50 [1]: 130 ± 10 µM
vasodilating activity compared with the reference product (in words) ([1]; reference: isosorbide 5-mononitrate): superior to that of the reference product
EC50 ([2]; Rattus norvegicus, sc, 72 h, read-out: CE50, animals without any compound administrated during three days (Group A) (average ± SD)): 130 ± 10 µM
EC50 at 10 mg/kg ([2]; Rattus norvegicus, sc, read-out: CE50, animals with compound administrated during three days (Group B) (average ± SD)): 590 ± 100 µM
development of tolerance (in words) [2]: development of less tolerance as compared to the reference product
